Source: patent US20250235498A1, “METHODS OF TREATING OR PREVENTING RESPIRATORY DISEASE WITH HOUTTUYNIA CORDATA THUNB-BASED AEROSOL INHALATION THERAPY” (National Sun Yat-sen University, priority 2024, published 2025)

Test system: cytokine and chemokine in bronchoalveolar lavage fluid (BALF)
Assay: Ovalbumin (OVA)-sensitized phenol-induced COPD animal model, cytokine and chemokine detection in BALF
Assay type: in vivo, Female BALB/c ByJNarl mice
Details: OVA-sensitized mice exposed to phenol aqueous aerosols for 3 weeks, aerosol inhalation; FIG. 3
Protocol: Four types of aerosol drugs with varying formulation are separately named as drug A, drug B, drug C and NAC. Drug A, drug B and drug C are mainly composed by Houttuynia Cordata Thunb aqueous extract. Drug A (HCA-A) is pure Houttuynia Cordata Thunb aqueous extract. Drug B (HCA-B) is comprised of Houttuynia Cordata Thunb aqueous extract and 500 μM GSH, while Drug C (HCA-C) is comprised of Houttuynia Cordata Thunb aqueous extract, 500 µM GSH and 500 μM BP. NAC is a mucolytic and antioxidant drug already prevalently used in clinic that are known to modulate several pathways of inflammation. NAC is used here as the positive control to compare the efficacy of aerosol formulation of Houttuynia Cordata Thunb in this study.
The OVA-sensitized mice were firstly placed in a custom-built 40 cm×40 cm×30 cm whole-body acrylic exposure chamber, which was filled and continuously replenished with phenol aqueous aerosols (PAA) for 30 minutes, twice per day for three consecutive weeks. PAA were prepared by atomizing 0.25M aqueous phenol solution via a high flow, liquid-feed atomizer (Model 9306, TSI).
Female BALB/c ByJNarl mice (age: 6-8 weeks, weight: 20-25 g) were purchased from National Laboratory Animal Center (NLAC, NARLabs, Taiwan) and approved by the Institutional Animal Care and Use Committee (IACUC) for the experiment of phenol aerosol exposure and inhalation therapy on OVA-treated mice. […]

CC(=O)N[C@@H](CS)C(=O)O [NAC, N-Acetylcysteine]
Interleukin 1α (IL-1α) level in BALF: did not show apparent reduction
